Laboratory results as given in US8758767B2, “Antigens targeted by prevalent pathogennic T cells in type 1 diabetes and uses thereof” (Albert Einstein College of Medicine of Yeshiva University, priority 2003, dated 2014).

Columns and labels:
[1] = target: IGRP206-214/H-2K^d on antigen-presenting cells (mouse) (UniProt P01902); assay: cell-based or functional assay
[2] = target: T1, H-2Db (Mus musculus, UniProt P01899); assay: Presentation of IGRP peptide by MHC class I molecule
T1 sequence (P01899 25-362): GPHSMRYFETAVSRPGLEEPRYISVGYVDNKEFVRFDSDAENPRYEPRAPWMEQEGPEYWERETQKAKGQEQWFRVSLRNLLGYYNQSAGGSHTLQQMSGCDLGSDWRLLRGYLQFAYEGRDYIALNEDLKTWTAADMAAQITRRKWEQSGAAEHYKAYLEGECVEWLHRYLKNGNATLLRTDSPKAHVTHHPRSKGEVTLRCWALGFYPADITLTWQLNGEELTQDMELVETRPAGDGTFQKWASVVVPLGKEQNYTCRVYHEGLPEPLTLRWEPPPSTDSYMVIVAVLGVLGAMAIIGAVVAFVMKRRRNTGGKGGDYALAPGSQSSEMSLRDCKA
T1 sequence (P01887 21-119 partner): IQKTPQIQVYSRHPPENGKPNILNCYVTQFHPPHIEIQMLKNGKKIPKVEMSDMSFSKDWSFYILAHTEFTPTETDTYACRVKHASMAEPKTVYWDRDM

[3] = test system: T-cells from the islets of 12-week-old female NOD mice; assay: Interferon-γ ELISpot of T-cells cultured from NOD islets (Example 4); format: cell-based, mouse
Protocol: Using procedures described in Example 1, we have cultured T-cells from the islets of 12-week-old female NOD mice. T-cells were assayed for recognition of several different IGRP peptides by interferon-γ ELISpot.

[4] = test system: AI12.B1.3 TCR; assay: TCR transfectant peptide recognition, IL-2 release (58 α−β− cells, RMA-S/K^d presenters); format: cell-based, mouse; details: FIG. 2
Source text: (§1) T cell receptors from the previously isolated NOD-derived β cell-autoreactive class I MHC-restricted T cell clones AI4, AI12.B1.1, AI12.B1.2, AI12.B1.3, AI15.A10, AI15.F5 (DiLorenzo et al., 1998), and 8.3 (Verdaguer et al., 1997) were expressed in the TCR^− T cell hybridoma 58α^−β^− (engineered to express the TCR ζ chain and CD8αβ and provided by H.-C. Chang, Dana Farber, Boston, Mass., USA) as described (Serreze et al., 2001). TCR expression was verified by flow cytometric analysis of growing clones using an antibody to CD3ε (145-2C11). RMA-S/K^d cells incubated overnight at 28° C. were used to present exogenously added synthetic peptides at concentrations as indicated in the figures. Peptide recognition by the TCR transfectants was measured by IL-2 production as previously described (Serreze et al., 2001).

[5] = test system: AI15.F5 TCR; assay: as above; format: cell-based, mouse; details: FIG. 2
Source text: as §1

[6] = test system: 8.3-CD8+ T-cells; assay: Proliferation and cytokine secretion of naive splenic 8.3-CD8+ T-cells with peptide-pulsed NOD splenocytes; format: cell-based, mouse; details: FIG. 5, peptide 0.01-1 μM
Protocol: Naïve or NRP-A7-differentiated (see below) splenic CD8+ T-cells from 8.3-NOD mice (2×10^4/well) were incubated, in duplicate, with peptide-pulsed (0.01, 0.1 and 1 μM), γ-irradiated (3,000 rad) NOD splenocytes (10^5/well) for 3 days at 37° C. in 5% CO2. Cultures were pulsed with 1 μCi of (^3H)-thymidine during the last 18 hours of culture and harvested.
(§2) Naïve splenic CD8+ T-cells from 8.3-NOD mice (2×10^4/well) were incubated with peptide-pulsed (0.001, 0.01, 0.1, 1 and/or 10 μM) γ-irradiated NOD splenocytes (10^5/well) in 96-well plates for 48 hours at 37° C. Short-term islet-derived T-cell lines from peptide-treated or unmanipulated NOD mice (adjusted at 2×10^4 CD8+ T-cells/well) were tested the same way, but using 10 μM of peptide. The supernatants (100 μl/well) were assayed in duplicate for IL-2, IL-4, and/or IFN-γ content by ELISA using commercially available kits (Genzyme Diagnostics, Cambridge, Mass.).

[7] = test system: 8.3-CD8+ splenocytes of 8.3-NOD mice; assay: Tolerogenic activity of APLs in 8.3-NOD mice; format: in vivo, mouse; details: single injection 100 μg in PBS, analysis 7 days later
Protocol: (§3) Cohorts of 3-to-4 week-old female NOD mice were injected with 1-100 μg of peptide in PBS intraperitoneally. This was repeated every 2 weeks until the 7-8th week, and every 3 weeks thereafter. Mice were monitored for development of hyperglycemia until at least the 28th week of age. The 8.3-CD8+ T-cell tolerogenic activity of APLs was determined by treating 8-15 wk-old 8.3-NOD mice with one i.p. injection of 100 μg of peptide. […] Mice were sacrificed a week after treatment, and their spleens analyzed for presence of 8.3-CD8+ T-cells by flow cytometry.

[8] = test system: female NOD mice; assay: Repeated peptide treatment of female NOD mice, diabetes development and islet-associated CD8+ T-cells; format: in vivo, mouse
Protocol: as §3
We next investigated whether the anti-diabetogenic activity of the above APLs was a function of “avidity”, as defined not only by the affinity of individual peptide/MHC complexes for specific TCRs, but also by the absolute number of peptide/MHC complexes that are available for recognition (i.e. dose of peptide). This was done by treating cohorts of female NOD mice with repeated injections of TUM (negative control), NRP-I4, NRP-A7 and NRP-V7 (in PBS) over a wide dose range, and by following the mice for development of diabetes (FIG. 7A, top). Starting at 3-4 weeks of age, mice received one injection of peptide i.p. every 2 (first three doses) or 3 weeks after initiation of treatment. Mice were sacrificed at diabetes onset or at the end of the follow-up period (28-32 weeks), to investigate the effects of treatment on the size and tetramer-binding avidity of the islet-associated IGRP206-214-reactive CD8+ T-cell subpopulation (FIG. 7A, bottom).

[9] = test system: CD8+ cells propagated from islets of NOD mice; assay: IFN-γ secretion by islet-derived CD8+ T-cells in response to IGRP peptides; format: cell-based, mouse; details: peptide 10 μM, pre-diabetic or acutely diabetic NOD mice
Source text: Islet-derived CD8+ T-cells from peptide-treated or unmanipulated NOD mice were generated by culturing pancreatic islets in complete media (CM: RPMI 1640 media containing 10% fetal bovine serum), containing 0.5 U/ml Takeda rhIL-2 (10-50 islets/well in 24-well plates). The in vivo-activated, IL-2R+ lymphocytes migrating from islets into the culture media were used in functional assays within 6-9 days of islet isolation (Amrani et al., 2000; Anderson et al., 1999).
as §2

[10] = test system: CD8+ cells derived from pancreatic islets of wild-type NOD mice; assay: Tetramer staining and avidity of NOD islet-derived CD8+ T-cells (Example 3); format: cell-based, mouse; details: FIG. 9B, at least some animals
Protocol: Tetramers were prepared and used as described in (Amrani et al., 2000). Hand-picked pancreatic islets from individual mice were cultured in complete media supplemented with 0.5 U/ml of Takeda rhIL-2 for 7-9 days. T-cells (10^6 per 20 μl) were then stained for 45 minutes on ice in 20 μl of wash media (0.2% sodium bicarbonate, 0.1% sodium azide and 2% FBS in RPMI-1640) containing anti-CD8-FITC (clone YTS169.4; 0.5 μg) and tetramer (85.5 nM). After washing, the cells were resuspended in wash media and analyzed with a flow cytometer (Becton Dickinson). For the analysis of tetramer staining at equilibrium, T-cells were stained for 2 hours at room temperature with 20 μl of wash media (0.2% sodium bicarbonate, 0.1% sodium azide and 2% FBS in RPMI-1640) containing anti-CD8α-FITC (clone YTS169.4; 0.5 μg) and different concentrations of tetramers (8.55, 17.1, 42.75 and 85.5 nM). After washing, cells were resuspended in 100 μl of wash media, fixed in 0.4% paraformaldehide and analyzed with a flow cytometer. The apparent Kd values were determined by plotting the negative reciprocal of the slope of the line fit to Scatchard plots of fluorescence units (median of CD8+ population tetramer staining)/nM versus fluorescence units.

Question: How did the half-maximal activity, 51Cr-release assay with 8.3 CTL on peptide-pulsed RMA-S/K^d cells [1] turn out when 8.3 T cell receptor (TCR) was run?
Answer: 50 µM

Question: With CALTSLTTM [IGRP296-304] as the substance, how does the “presentation by MHC class I molecule” value [2] read?
Answer: is presented by the MHC class I molecule H-2Db

Question: Which “T-cell reactivity by interferon-γ ELISpot” value [3] does the source give for FLWSVFWLI [IGRP152-160] here?
Answer: Reactivity was found

Question: Which results are given for KYNKANVFL [NRP-V7, reference compound]?
Answer: recognition by AI12.B1.3 (IL-2 release) [4]: recognized; recognition by AI15.F5 (IL-2 release) [5]: responded; agonistic activity on 8.3-CD8+ T-cells [6]: superior agonistic activity; 8.3-CD8+ splenocytes after treatment [7]: fewer 8.3-CD8+ splenocytes; anti-diabetogenic activity ([8]; any dose): not significantly protective; protection from diabetes by chronic treatment (discussion summary) ([8]; intermediate doses NRP-A7, high doses NRP-I4, low or high doses NRP-V7, high doses IGRP206-214): only afforded marginal protection from disease; NRP-V7-reactive CD8+ cells in the islets ([8]; over a range of doses): almost completely devoid

Question: “TYYGFLNFM [peptide 39, text numbering of the IGRP library]” was tested. Which “mice with islet CD8+ T-cells responding to the peptide (IFN-γ secretion)” value [9] did it give?
Answer: a significant number of mice also mounted responses

Question: And the “presence of peptide-reactive CD8+ T-cells in islets by tetramers” value [10]?
Answer: confirmed the presence
